Data published in PubChem BioAssay (NCI).
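Growth conditions: 96-well plates. Treatment: test compound, 48 hours, 5 concentrations. Analysis: linear interpolation between bracketing concentrations; unreached endpoints set to highest concentration. GI50: concentration for 50% inhibition of growth. TGI denotes the concentration required for complete inhibition of growth.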

Columns and labels:
Assay in all cases: NCI tumour cell line growth inhibition, 48 h
MDA-MB-231 breast = system: MDA-MB-231 breast
UACC-257 melanoma = system: UACC-257 melanoma
RPMI-8226 leukemia = system: RPMI-8226 leukemia
A549 NSCLC = system: A549 NSCLC
SW-620 colon = system: SW-620 colon
HCC-2998 colon = system: HCC-2998 colon
OVCAR-8 ovarian = system: OVCAR-8 ovarian
UO-31 renal = system: UO-31 renal
ACHN renal = system: ACHN renal
COLO 205 colon = system: COLO 205 colon

| Structure (SMILES) | TGI (MDA-MB-231 breast) [µM] | TGI (UACC-257 melanoma) [µM] | TGI (RPMI-8226 leukemia) [µM] | TGI (A549 NSCLC) [µM] | TGI (SW-620 colon) [µM] | TGI (HCC-2998 colon) [µM] | TGI (OVCAR-8 ovarian) [µM] | TGI (UO-31 renal) [µM] | TGI (ACHN renal) [µM] | TGI (COLO 205 colon) [µM] | GI50 (MDA-MB-231 breast) [µM] | GI50 (UACC-257 melanoma) [µM] | GI50 (RPMI-8226 leukemia) [µM] | GI50 (A549 NSCLC) [µM] | GI50 (COLO 205 colon) [µM] | GI50 (SW-620 colon) [µM] | GI50 (HCC-2998 colon) [µM] | GI50 (OVCAR-8 ovarian) [µM] | GI50 (ACHN renal) [µM] |
| --- | --- | --- | --- | --- | --- | --- | --- | --- | --- | --- | --- | --- | --- | --- | --- | --- | --- | --- | --- |
| Cc1cccc2c1CC1(Cc3c(C)cccc3C1=O)C2=O | > 100 | > 100 | > 100 | > 100 | > 100 | > 100 | > 100 | > 100 | > 100 | – | – | – | – | – | – | – | – | – | – |
| CCCCCC(=O)OC[n+]1ccc(-c2c(COC(=O)NC(C)C)c(COC(=O)NC(C)C)c3n2CCC3)cc1 | > 100 | > 100 | > 100 | > 100 | > 100 | > 100 | > 100 | > 100 | > 100 | > 100 | – | – | – | – | – | – | – | – | – |
| O=C(Nc1ccccn1)c1cc2c(cc1Cl)Sc1nccn1S2(=O)=O | 53 | > 100 | > 100 | > 100 | > 100 | 30.9 | > 100 | 94.9 | > 100 | 83.5 | – | – | – | – | – | – | – | – | – |
| COC(=O)C1=C(C(=O)OC)C2CCC1CC2=O (configuration not stated) | > 100 | > 100 | > 100 | > 100 | > 100 | > 100 | > 100 | > 100 | > 100 | > 100 | – | – | – | – | – | – | – | – | – |
| Cc1cn(C2CC(/[N+]([O-])=N\Nc3ccc([N+](=O)[O-])cc3)C(CO)O2)c(=O)[nH]c1=O (configuration not stated) | > 100 | > 100 | > 100 | > 100 | > 100 | > 100 | > 100 | > 100 | > 100 | > 100 | – | – | – | – | – | – | – | – | – |
| CCOC(=O)C(C(=O)OCC)C(=S)NC1OC(COC(C)=O)C(OC(C)=O)C(OC(C)=O)C1OC(C)=O (configuration not stated) | > 100 | > 100 | > 100 | > 100 | > 100 | > 100 | > 100 | > 100 | – | > 100 | – | – | – | – | – | – | – | – | – |
| COc1ccc(-c2c3c(n(C4OC(COC(C)=O)C(OC(C)=O)C(OC(C)=O)C4OC(C)=O)c(=S)c2C#N)CCCC3)cc1 (configuration not stated) | > 100 | > 100 | – | > 100 | > 100 | > 100 | > 100 | > 100 | > 100 | > 100 | – | – | – | – | – | – | – | – | – |
| CCCCCCCCC[C@@H]1C[C@H](O)[C@H](Cc2ccccc2)N1C(=O)OC(C)(C)C | – | 30.6 | 63.3 | 32.6 | 38.4 | 27.8 | 34.3 | 27.4 | 30.8 | 31.1 | – | – | – | – | – | – | – | – | – |
| COc1ccc(-c2cc(-c3ccncc3)nc(N)c2-c2ccc(F)cc2)cc1 | > 100 | > 100 | > 100 | > 100 | > 100 | – | > 100 | > 100 | 75.4 | 97.3 | – | – | – | – | – | – | – | – | – |
| NCCCCNCCCNC(=O)c1csc(-c2nc(CCN)sc2Cl)n1 | – | > 100 | > 100 | > 100 | > 100 | > 100 | > 100 | > 100 | > 100 | > 100 | – | – | – | – | – | – | – | – | – |
| ClC1(Cl)C2CCOC21n1cnc2ccccc21 (configuration not stated) | > 100 | – | > 100 | > 100 | > 100 | > 100 | > 100 | > 100 | – | > 100 | – | – | – | – | – | – | – | – | – |
| O=[N+]([O-])c1ccc(N/N=C\c2ccc(O)cc2O)nc1 | > 100 | > 100 | > 100 | > 100 | > 100 | > 100 | > 100 | – | 21.3 | > 100 | 2.1 | 3.37 | 4.21 | 2.47 | 5.56 | 2.69 | 3.94 | 1.52 | 0.599 |
| COc1ccc(/C=C2\NC(=S)N(CN3CCOCC3)C2=O)cc1 | > 100 | > 100 | > 100 | > 100 | > 100 | – | > 100 | > 100 | > 100 | > 100 | – | – | – | – | – | – | – | – | – |
| COc1ccc(C(CC(=O)c2ccc(O)cc2)C(C(=O)c2ccc(O)cc2)C(c2ccc(OC)cc2)C2C(=O)NC(=S)NC2=O)cc1 (configuration not stated) | 55.9 | 41 | 92.4 | 89.9 | 55.7 | – | 60 | 33.8 | 43.6 | 45.1 | – | – | – | – | – | – | – | – | – |
| c1ccc2c(CCNC3=NCCO3)cccc2c1 | > 10 | – | > 10 | > 10 | > 10 | > 10 | > 10 | > 10 | > 10 | > 10 | – | – | – | – | – | – | – | – | – |
| CSc1c(C#N)c(=O)n(N)c2n[nH]c(C)c12 | > 100 | > 100 | > 100 | > 100 | > 100 | > 100 | > 100 | > 100 | – | > 100 | – | – | – | – | – | – | – | – | – |
| COc1ccccc1N1C(=O)/C(=C\c2ccccc2)SC1c1cc(OC)c(OC)c(OC)c1 (configuration not stated) | 71.3 | > 100 | – | > 100 | – | > 100 | > 100 | > 100 | > 100 | > 100 | – | – | – | – | – | – | – | – | – |
| COC(=O)CCC(=O)c1ccc2c(c1)CC1(Cc3ccccc3C1)C2 | > 100 | 84.2 | > 100 | > 100 | – | > 100 | > 100 | 80.3 | > 100 | 82.3 | – | – | – | – | – | – | – | – | – |
| Cc1cc(NS(=O)(=O)c2ccc(N=Nc3c(Nc4ccccc4)nn(-c4ccc(S(=O)(=O)Nc5ccncn5)cc4)c3C)cc2)no1 | > 100 | > 100 | – | > 100 | – | > 100 | > 100 | > 100 | > 100 | > 100 | – | – | – | – | – | – | – | – | – |
| CN(C)CCNc1nc2c(c(=O)n(C)c(=O)n2C)n1C | > 100 | > 100 | > 100 | > 100 | > 100 | – | > 100 | > 100 | > 100 | > 100 | – | – | – | – | – | – | – | – | – |
| O=[N+]([O-])c1cnccc1-n1nnc2ccccc21 | – | 51.4 | > 100 | > 90.1 | 52 | 51.6 | 50.8 | > 86.2 | – | 72.8 | – | – | – | – | – | – | – | – | – |
| COc1cc2oc(=O)cc(C)c2c(OC)c1OC | > 100 | > 100 | > 100 | > 100 | > 100 | – | > 100 | > 100 | > 100 | > 100 | – | – | – | – | – | – | – | – | – |
